For orientation: EC50 means the concentration at which the effect is half-maximal.

The source made the active and inactive calls. The calls are words filed in the database; no cut-off is given here.

Results on ten compounds are retold here after ChEMBL document CHEMBL3045902, “Actions of imidacloprid, clothianidin and related neonicotinoids on nicotinic acetylcholine receptors of American cockroach neurons and their relationships with insecticidal potency” (J Pestic Sci, 2006).

In one series the test system is Periplaneta americana. Description: Insecticidal activity against Periplaneta americana (American cockroach) assessed as killing measured per insect at 25 to 28 degC for 24 hr in presence of piperonyl butoxide. Format: functional.
Series [1] can be described thus: Hydrophobicity, log K of the compound by HPLC. Type of series: physicochemical.
The target in series [2] is T1, Nicotinic acetylcholine receptor alpha8 subunit (Periplaneta americana, UniProt H6TY12).
T1 sequence (H6TY12 whole entry): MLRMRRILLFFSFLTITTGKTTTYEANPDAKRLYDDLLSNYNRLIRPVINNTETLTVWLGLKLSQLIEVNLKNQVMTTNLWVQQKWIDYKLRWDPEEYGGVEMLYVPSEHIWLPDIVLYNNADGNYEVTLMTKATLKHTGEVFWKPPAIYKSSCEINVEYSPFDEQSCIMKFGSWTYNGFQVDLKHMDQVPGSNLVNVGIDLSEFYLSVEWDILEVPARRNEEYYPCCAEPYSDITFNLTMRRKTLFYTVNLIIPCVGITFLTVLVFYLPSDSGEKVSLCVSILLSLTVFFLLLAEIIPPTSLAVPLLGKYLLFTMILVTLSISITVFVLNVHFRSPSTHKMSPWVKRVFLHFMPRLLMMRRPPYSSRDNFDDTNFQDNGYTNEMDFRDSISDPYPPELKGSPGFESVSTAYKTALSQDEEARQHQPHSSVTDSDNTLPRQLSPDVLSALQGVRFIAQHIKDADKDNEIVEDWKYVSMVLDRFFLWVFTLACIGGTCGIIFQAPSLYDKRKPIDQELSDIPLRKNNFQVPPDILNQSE
Nature of the series: Agonist activity at Periplaneta americana (American cockroach) nAChR in terminal abdominal ganglion assessed as assessed as inward current by tight-seal whole cell patch clamp method. Type of series: tissue-based. A general note: The patch-clamp technique gives a direct electrical read-out from membranes.

The target in series [3] is T2, Nicotinic acetylcholine receptor alpha8 subunit (Periplaneta americana) (UniProt H6TY12).
T2 sequence (whole entry): T1 sequence (H6TY12 whole entry)
Nature of the series: Agonist activity at Periplaneta americana (American cockroach) nAChR in terminal abdominal ganglion assessed as assessed as inward current by tight-seal whole cell patch clamp method relative to 100 uM ACh. Type of series: tissue-based.

`CN/C(=N\[N+](=O)[O-])NCc1cnc(Cl)s1` [CLOTHIANIDINE]: in the series with Periplaneta americana, the pMLD is recorded as 10.2. Moreover, the “log K” value in series [1] came out at 0.17. The EC50 in series [2] was 1.58 µM. Moreover, the Imax in series [3] was 0.68.

For `O=[N+]([O-])/C=C1\NCCN1Cc1ccc(Cl)nc1`, the pMLD with Periplaneta americana was found to be 10.1. Also, the “log K” value in series [1] is listed as 0.05. In series [2], the EC50 is 0.0724 µM. Also, the Imax in series [3] is 0.24.

On to `C/N=C(\NCc1ccc(Cl)nc1)N[N+](=O)[O-]`, for which the pMLD in the series on Periplaneta americana is 9.52. In addition, the “log K” value in series [1] was 0.11. The EC50 in series [2] is 1.86 µM. Moreover, the Imax in series [3] came to 0.31.

Consider `CN/C(=C\[N+](=O)[O-])NCc1cnc(Cl)s1`, for which the pMLD with Periplaneta americana is 10.2. Also, in series [1], the “log K” value is given as 0.14. In series [2], the EC50 was 0.0195 µM. Moreover, the Imax in series [3] amounted to 0.47.

For the compound `CN/C(=C\[N+](=O)[O-])NCc1ccc(Cl)nc1`, in the series with Periplaneta americana, the pMLD was 9.22. Also, the “log K” value in series [1] worked out at 0.16. Besides, in series [2], the EC50 is 0.0389 µM. For the same compound, the Imax in series [3] came to 0.44.

For the compound `O=[N+]([O-])/N=C1\NCCN1Cc1ccc(Cl)nc1` [IMIDACLOPRID], the pMLD in the series with Periplaneta americana amounted to 10.4. Moreover, the Imax in series [3] is 0.11.

For `O=[N+]([O-])NC1=NCCN1Cc1ccc(Cl)nc1` [IMIDACLOPRID], the “log K” value in series [1] was 0.23. Moreover, in series [2], the EC50 is 1.32 µM.

Consider `CC(=O)OCC[N+](C)(C)C` [ACETYLCHOLINE], for which the pMLD result in the series with Periplaneta americana is “inactive”. Also, the EC50 in series [2] is 11.5 µM.

Turning to `O=[N+]([O-])/C=C1\NCCN1Cc1cnc(Cl)s1`, in the series with Periplaneta americana, the pMLD is reported as 10.2. Moreover, the “log K” value in series [1] was 0.03. Also, the EC50 in series [2] was 0.0158 µM. Moreover, the Imax in series [3] was found to be 0.3.

For the compound `O=[N+]([O-])/N=C1\NCCN1Cc1cnc(Cl)s1` [IMIDACLOTHIZ], the pMLD with Periplaneta americana was determined as 9.07. Besides, the “log K” value in series [1] came to 0.28. For the same compound, the EC50 in series [2] is 1.58 µM. In series [3], the Imax stood at 0.3.
